Experimental findings from patent US20190359609A1, “BICYCLIC OGA INHIBITOR COMPOUNDS” (Janssen Pharmaceutica NV, priority 2016, published 2019) are described below.

Structures are written as SMILES. Counter-ions that a name gives are not always drawn. Like-named read-outs stand apart in the source and are kept apart here.

The target in data set [1] is T1, recombinant human Meningioma Expressed Antigen 5 (MGEA5), also referred to as O-GlcNAcase (OGA) (Homo sapiens, UniProt O60502).
T1 construct: Full length OGA enzyme was purchased at OriGene (cat # TP322411); purchased OriGene TP322411
T1 sequence (O60502 1-916): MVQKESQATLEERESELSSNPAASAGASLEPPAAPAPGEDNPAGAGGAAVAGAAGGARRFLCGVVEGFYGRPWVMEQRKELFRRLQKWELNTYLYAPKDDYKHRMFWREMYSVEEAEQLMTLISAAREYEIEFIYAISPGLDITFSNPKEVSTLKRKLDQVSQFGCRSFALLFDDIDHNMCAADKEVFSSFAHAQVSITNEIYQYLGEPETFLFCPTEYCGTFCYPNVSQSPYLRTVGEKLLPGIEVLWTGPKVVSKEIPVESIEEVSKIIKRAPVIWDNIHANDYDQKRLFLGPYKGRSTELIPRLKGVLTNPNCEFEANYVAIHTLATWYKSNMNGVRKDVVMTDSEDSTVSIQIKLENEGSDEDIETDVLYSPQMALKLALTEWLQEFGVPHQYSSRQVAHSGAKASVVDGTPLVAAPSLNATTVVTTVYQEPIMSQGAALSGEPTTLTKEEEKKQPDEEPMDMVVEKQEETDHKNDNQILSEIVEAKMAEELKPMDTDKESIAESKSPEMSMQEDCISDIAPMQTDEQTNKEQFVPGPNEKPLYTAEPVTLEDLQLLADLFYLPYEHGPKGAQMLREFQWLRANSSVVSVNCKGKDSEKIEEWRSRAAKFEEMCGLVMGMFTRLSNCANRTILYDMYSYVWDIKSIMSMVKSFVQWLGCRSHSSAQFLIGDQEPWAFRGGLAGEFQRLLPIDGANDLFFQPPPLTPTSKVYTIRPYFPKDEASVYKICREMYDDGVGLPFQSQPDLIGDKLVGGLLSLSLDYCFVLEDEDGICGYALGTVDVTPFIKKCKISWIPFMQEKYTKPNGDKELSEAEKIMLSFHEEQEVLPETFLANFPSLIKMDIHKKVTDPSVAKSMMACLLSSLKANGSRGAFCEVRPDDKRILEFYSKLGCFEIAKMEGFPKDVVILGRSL
Nature of the data set: OGA biochemical assay: inhibition of FM-GlcNAc hydrolysis, fluorescence (protocol A 10 nM OGA, 1 h; protocol B 2 nM OGA, 6 h). As to conditions: for IC50: read-out: Enzymatic hOGA, pIC50 (converted); for Emax: read-out: Enzymatic Emax (%). The source says: The assay is based on the inhibition of the hydrolysis of fluorescein mono-B-D-N-Acetyl-Glucosamine (FM-GlcNAc) (Mariappa et al. 2015, Biochem J 470:255) by the recombinant human Meningioma Expressed Antigen 5 (MGEA5), also referred to as 0-GlcNAcase (OGA). The hydrolysis FM-GlcNAc (Marker Gene technologies, cat # M1485) results in the formation of β-D-N-glucosamineacetate and fluorescein. The fluorescence of the latter can be measured at excitation wavelength 485 nm and emission wavelength 538 nm. An increase in enzyme activity results in an increase in fluorescence signal. Full length OGA enzyme was purchased at OriGene (cat # TP322411). The enzyme was stored in 25 mM Tris.HCl, pH 7.3, 100 mM glycine, 10% glycerol at −20° C. Thiamet G and GlcNAcStatin were tested as reference compounds (Yuzwa et al. 2008 Nature Chemical Biology 4:483; Yuzwa et al. 2012 Nature Chemical Biology 8:393). The assay was performed in 200 mM Citrate/phosphate buffer supplemented with 0.005% Tween-20. 35.6 g Na2HPO4 2 H2O (Sigma, # C0759) were dissolved in 1 L water to obtain a 200 mM solution. 19.2 g citric acid (Merck, #1.06580) was dissolved in 1 L water to obtain a 100 mM solution. pH of the sodiumphosphate solution was adjusted with the citric acid solution to 7.2. The buffer to stop the reaction consists of a 500 mM Carbonate buffer, pH 11.0. 734 mg FM-GlcNAc were dissolved in 5.48 mL DMSO to obtain a 250 mM solution and was stored at −20° C. OGA was used at a 10 nM (protocol A) or 2 nM (protocol B) concentration and FM-GlcNAc at a 100 uM final concentration. Dilutions were prepared in assay buffer.
50 nl of a compound dissolved in DMSO was dispensed on Black Proxiplate™ 384 Plus Assay plates (Perkin Elmer, #6008269) and 3 μl fl-OGA enzyme mix added subsequently. Plates were pre-incubated for 60 min at room temperature and then 2 μl FM-GlcNAc substrate mix added. […] Plates were briefly centrifuged for 1 min at 1000 rpm and incubate at room temperature for 1 h (10 nM OGA, protocol A) or 6 h (2 nM OGA, protocol B). To stop the reaction 5 μl STOP buffer were added and plates centrifuge again 1 min at 1000 rpm. Fluorescence was quantified in the Thermo Scientific Fluoroskan Ascent or the PerkinElmer EnVision with excitation wavelength 485 nm and emission wavelength 538 nm.
For analysis a best-fit curve is fitted by a minimum sum of squares method. From this an IC50 value and Hill coefficient was obtained. High control (no inhibitor) and low control (saturating concentrations of standard inhibitor) were used to define the minimum and maximum values.

Another data set deals with T2, OGA (Homo sapiens, UniProt O60502).
T2 construct: endogenous in cells; host or cells: HEK293 cells inducible for P301L mutant human Tau (2N4R)
T2 sequence (O60502 1-916): T1 sequence (O60502 1-916)
Nature of the data set: OGA cellular assay: ICC detection of O-GlcNAcylated proteins in HEK293 cells inducible for P301L mutant human Tau. As to conditions: 6 hours incubation; for EC50: read-out: Cellular hOGA, pEC50 (converted). In kind it is cell-based. As for the experimental part:
HEK293 cells inducible for P301L mutant human Tau (isoform 2N4R) were established at Janssen. Thiamet-G was used for both plate validation (high control) and as reference compound (reference EC50 assay validation). OGA inhibition is evaluated through the immunocytochemical (ICC) detection of O-GlcNAcylated proteins by the use of a monoclonal antibody (CTD110.6; Cell Signaling, #9875) detecting O-GlcNAcylated residues as previously described (Dorfmueller et al. 2010 Chemistry & biology, 17:1250).
Inhibition of OGA will result in an increase of 0-GlcNAcylated protein levels resulting in an increased signal in the experiment. Cell nuclei are stained with Hoechst to give a cell culture quality control and a rough estimate of immediate compounds toxicity, if any. ICC pictures are imaged with a Perkin Elmer Opera Phenix plate microscope and quantified with the provided software Perkin Elmer Harmony 4.1.
Cells were propagated in DMEM high Glucose (Sigma, #D5796) following standard procedures. 2 days before the cell assay cells are split, counted and seeded in Poly-D-Lysine (PDL) coated 96-wells (Greiner, #655946) plate at a cell density of 12,000 cells per cm^2 (4,000 cells per well) in 100 μl of Assay Medium (Low Glucose medium is used to reduce basal levels of GlcNAcylation) (Park et al. 2014 The Journal of biological chemistry 289:13519). At the day of compound test medium from assay plates was removed and replenished with 90 μl of fresh Assay Medium. 10 μl of compounds at a 10fold final concentration were added to the wells. Plates were centrifuged shortly before incubation in the cell incubator for 6 hours. DMSO concentration was set to 0.2%. Medium is discarded by applying vacuum. For staining of cells medium was removed and cells washed once with 100 μl D-PBS (Sigma, #D8537). From next step onwards unless other stated assay volume was always 50 μl and incubation was performed without agitation and at room temperature. Cells were fixed in 50 μl of a 4% paraformaldehyde (PFA, Alpha aesar, #043368) PBS solution for 15 minutes at room temperature. […] Before analysis samples were washed 2 times manually for 5 minutes in ICC base buffer.
Imaging is performed using Perkin Elmer Phenix Opera using a water 20× objective and recording 9 fields per well. Intensity readout at 488 nm is used as a measure of O-GlcNAcylation level of total proteins in wells. To assess potential toxicity of compounds nuclei were counted using the Hoechst staining. IC50-values are calculated using parametric non-linear regression model fitting. As a maximum inhibition Thiamet G at a 200 uM concentration is present on each plate. In addition, a concentration response of Thiamet G is calculated on each plate.

The target in a further data set is PDE2 (Homo sapiens, UniProt O00408). Nature of the data set: PDE2 inhibitory activity (protocol as described in WO2017/076900, page 28). The format is biochemical. The note with it: screening concentration of 10 μM; read-out: PDE2 inhibitory activity, % effect.
Where [2] appears, read: Enzymatic protocol A (10 nM OGA, 1 h).
Where [3] appears, read: Enzymatic protocol B (2 nM OGA, 6 h).

Chain of PDE2 (O00408 whole entry): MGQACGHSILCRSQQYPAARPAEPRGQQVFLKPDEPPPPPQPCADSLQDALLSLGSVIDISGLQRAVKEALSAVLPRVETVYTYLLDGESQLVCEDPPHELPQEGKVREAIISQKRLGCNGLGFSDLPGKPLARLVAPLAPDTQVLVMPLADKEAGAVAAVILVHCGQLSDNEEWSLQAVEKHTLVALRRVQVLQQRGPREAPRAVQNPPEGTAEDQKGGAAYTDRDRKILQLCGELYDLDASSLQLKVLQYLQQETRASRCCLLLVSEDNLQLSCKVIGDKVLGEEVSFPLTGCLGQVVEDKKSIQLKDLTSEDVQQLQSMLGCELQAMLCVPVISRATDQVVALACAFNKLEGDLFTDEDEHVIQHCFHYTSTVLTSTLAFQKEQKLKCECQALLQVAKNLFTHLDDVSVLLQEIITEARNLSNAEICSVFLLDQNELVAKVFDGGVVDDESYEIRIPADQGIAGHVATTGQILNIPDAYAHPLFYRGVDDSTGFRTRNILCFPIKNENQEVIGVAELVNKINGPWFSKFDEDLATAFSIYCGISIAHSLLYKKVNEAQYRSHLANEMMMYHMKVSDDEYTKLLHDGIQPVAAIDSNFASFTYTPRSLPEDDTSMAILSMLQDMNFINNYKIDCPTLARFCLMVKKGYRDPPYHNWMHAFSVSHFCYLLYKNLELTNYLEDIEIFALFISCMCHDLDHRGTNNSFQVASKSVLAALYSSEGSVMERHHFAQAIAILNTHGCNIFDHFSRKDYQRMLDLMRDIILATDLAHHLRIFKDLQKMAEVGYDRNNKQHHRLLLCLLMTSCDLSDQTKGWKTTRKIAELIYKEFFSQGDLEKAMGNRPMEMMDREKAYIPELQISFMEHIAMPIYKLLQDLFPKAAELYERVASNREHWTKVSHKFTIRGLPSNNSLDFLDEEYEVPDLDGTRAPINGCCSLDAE

The molecule `c1cnc2cc(C3CCCN(Cc4ccc5c(c4)OCCO5)C3)[nH]c2c1` (stereo not shown) (as salt: HCl) [Compound 39] registered a melting point of 178.2 °C.
`CC(=O)Nc1ncc(CN2CCCC(c3nc4ncccc4[nH]3)C2)s1` (single isomer, unassigned) [Compound 18] displayed a melting point of 223.94 °C. In data set [1] (setting [2]), the “Enzymatic Emax (%)” value was found to be 55.6% and the IC50 was 24500 nM.
In the case of `CC(=O)Nc1ncc(CN2CCCC(c3nc4ncccc4[nH]3)C2)s1` (single isomer, unassigned) [Compound 19], the melting point amounted to 228.2 °C. On OGA, the Emax is 109% and the EC50 was 851 nM. Further, in data set [1] (setting [2]), the “Enzymatic Emax (%)” value came out at 102% and the IC50 was 148 nM.
Take `CC(=O)Nc1ncc(S(=O)(=O)N2CCCC(c3cc4ncccc4[nH]3)C2)s1` (stereo not shown) [Compound 2]: on PDE2, the inhibition at 10 µM amounted to 33.1%. Besides, in data set [1] (setting [2]), the Emax worked out at 102% and the IC50 was 263 nM.
`CCC(=O)Nc1ncc(CN2CCCC(c3cc4ncccc4[nH]3)C2)s1` (stereo not shown) [Compound 9] came in with a melting point of 235 °C. Moreover, in data set [1] (setting [2]), the Emax is 98% and the IC50 was 204 nM.
Consider `c1cnc2cc(C3CCCN(Cc4ccc5c(c4)OCCO5)C3)[nH]c2c1` (stereo not shown) [Compound 39], for which, on OGA, the maximum response (Emax) stood at 90.3% and the EC50 was 3630 nM. Moreover, in data set [1] (setting [2]), the Emax stood at 98.2% and the IC50 was 617 nM.
Turning to `CC(c1ccc2c(c1)OCCO2)N1CCCC(c2cc3ncccc3n2C)C1` (stereo not shown) [Compound 40], at OGA, the Emax amounted to 75.1% and the EC50 is 955 nM. Also, in data set [1] (setting [3]), the maximal response (Emax) was found to be 102% and the IC50 was 61.7 nM.
Molecule `O=C(CN1CCCC(c2cc3ncccc3[nH]2)C1)N1CCCC1` (stereo not shown) [Compound 49] yielded a melting point of 179.9 °C. In addition, at OGA, the Emax amounted to 7.2% and the EC50 was over 10000 nM. Moreover, in data set [1] (setting [3]), the Emax turned out to be 80.5% and the IC50 is 2630 nM.
`CC(=O)Nc1ncc(CN2CC[C@@H](Cc3cc4ncccc4n3C)C2)s1` [Compound 58] showed a melting point of 187.16 °C. Besides, in data set [1] (setting [3]), the Emax worked out at 102% and the IC50 was 2.69 nM.
For `CC(=O)Nc1ncc(CN2CC[C@H](Cc3cc4ncccc4n3C)C2)s1` [Compound 59], in that order: 190.09 °C, 99.7% and 1.17 nM.
With `CC(=O)Nc1ncc(CN2CCC(Cc3cc4cccnc4n3C)C2)s1` (stereo not shown) [Compound 60], the melting point stood at 153.79 °C. Also, in data set [1] (setting [3]), the Emax was 99.2% and the IC50 was 9.33 nM.
For `CC(=O)Nc1ncc(CN2CCC(Cc3cc4cnccc4n3C)C2)s1` (stereo not shown) [Compound 61], in that order: 195.06 °C, 100% and 1.51 nM.
